Assay results from paper PMC11655904, “[^89Zr]Zr-DFO-TOC: a novel radiopharmaceutical for PET imaging of somatostatin receptor positive neuroendocrine tumors” (EJNMMI Radiopharmacy and Chemistry, 2024).
Several values for one entry are separate records, joined by “and”; a condition that tells them apart may be missing. Equal entries are not always repeated. Entries after “also recorded” stand apart in the source; their conditions may differ.

What was measured:
[1] = tested on: PC-3 cells; assay: Internalization assay, PC-3 cells; type: cell-based
Description: (§1) Cells were seeded in Fisherbrand™ 12-well surface-treated culture plates with 1 million cells per well for each cell line and were allowed to grow overnight under cell culture conditions. For internalization experiments, each well received 0.025 nmol DFO-TOC radiolabeled with 1 µCi (0.037 MBq) of [^89Zr]Zr-DFO-TOC in 1 mL of cell media. Plates were incubated with [^89Zr]Zr-DFO-TOC for 30 min, 1 h, and 3 h. Cells were detached from the wells using 800 µL of 0.05% Gibco trypsin incubated for 5 min. Cells were sedimented using a benchtop centrifuge at 7000 g for 5 min. The supernatant was removed, and the cells were resuspended in 200 µL of 0.1 M Supelco sodium citrate (pH 2) for 5 min. The cells were sedimented using a benchtop microcentrifuge and the supernatant was added to the trypsin. The supernatant and cell pellet activities were determined using the Wizard2 Gamma Counter.

[2] = tested on: AR42J cells; assay: Internalization assay, AR42J cells; type: cell-based; details: 0.025 nmol DFO-TOC, 1 µCi per well; time points 30 min, 1 h, 3 h; trypsin and sodium citrate pH 2 strip
Description: as §1

[3] = Benchtop stability of the radiotracer (radio-HPLC and iTLC); type: physicochemical; details: mean ± standard deviation
Description: To neutralize [^89Zr]Zr-oxalate, an equal volume of [^89Zr]Zr-oxalate and 0.5 M Thermo Scientific HEPES (concentration 99%) buffer were mixed. The pH of the sample was then adjusted using 5.0 M NaOH. For all radiolabeling experiments, 100 µCi (3.7 MBq) of ^89Zr (pH ~ 7.4) was incubated with varying molar quantities of DFO-TOC and 1.0 M HEPES buffer in a final incubation volume of 200 µL. The reaction was incubated on a thermomixer at 37 °C and 800 rpm for 30 min. The molar activity was determined by radiolabeling 1 nmol of DFO-TOC with varying activities of ^89Zr up to 1500 µCi (55.5 MBq) and 1.0 M HEPES buffer in a final incubation volume of 200 µL. Samples were incubated using the same conditions as the radiochemical yield assays. Samples were analyzed using an Agilent (Santa Clara, CA) 1260 Infinity II high-performance liquid chromatography (HPLC) instrument with a LabLogic (Chantilly, VA) Flow-RAM radio-HPLC detector. Radiochemical yields were determined via radio-HPLC using a reversed-phase C18 selectivity column (5 μm particle size, 150 mm length, and 4.6 mm diameter).
The samples were assessed for benchtop stability and stability in mouse serum only if a radiochemical yield of 95% or greater was achieved. Benchtop stability was assessed at time points of 30 min, 1 h, 1 day, 2 days, 3 days, 6 days, and 9 days using an Eckert & Ziegler (Valencia, CA) AR-2000 instant Thin Layer Chromatography (iTLC) and radio-HPLC. Diethylenetriamine pentaacetic acid was used as the mobile phase for iTLC, while radio-HPLC used the gradient described previously. Stability in mouse serum was assessed by adding 100 µL of a 200 [drawing 3] […] No further sample purification was conducted before injection on the radio-HPLC. All samples remained on a thermomixer at 37 °C and 800 rpm, and aliquots were removed for analysis by using iTLC and radio-HPLC, after 1 h, 1 day, 2 days, 3 days, 5 days, 6 days, and 9 days.

[4] = tested on: PANC-1 cells; assay: Internalization assay, PANC-1 cells; type: cell-based; details: 0.025 nmol DFO-TOC, 1 µCi per well; time points 30 min, 1 h, 3 h; trypsin and sodium citrate pH 2 strip
Description: as §1

[5] = tested on: PANC-1 cells (SSTR2 minimal expression); assay: Receptor binding and competitive receptor blocking assay, PANC-1 cells; type: cell-based
Description: (§2) Cells were seeded in Fisherbrand™ 12-well surface-treated culture plates with 1 million cells per well for each cell line and were allowed to adhere overnight under normal cell culture conditions. Samples were not purified to remove excess DFO-TOC. For receptor binding and blocking experiments, each well was incubated with [^89Zr]Zr-DFO-TOC (0.025 nmol DFO-TOC per well, 1 µCi (0.037 MBq) of [^89Zr]) in 1mL of cell media. For receptor blocking experiments,
(§3) 2.5 nmol unlabeled DFO-TOC was added to each well, in addition to [^89Zr]Zr-DFO-TOC. Culture plates were incubated with the tracer for 1 h, 3 h, 1 day, 3 days, 5 days, and 6 days. At each timepoint, the media was removed and the cells were washed with PBS twice. Cells were detached using 1 mL of 1 M NaOH and collected in a microcentrifuge tube for analysis using a Revvity (Waltham, MA) Wizard2 Gamma Counter. BCA assays were used to estimate protein concentrations per the manufacturer’s instructions.
(§4) All data was analyzed using GraphPad Prism (San Diego, CA) and is presented as a mean ± standard deviation. Statistical analysis was completed using a paired nonparametric t-test (α = 0.05) to compare cell total binding and cell blocking groups.

[6] = 100 µL of tracer sample (200 µCi, 7.4 MBq) in 400 µL prefiltered mouse serum, 37 °C, 800 rpm, mean ± standard deviation
Description: To neutralize [^89Zr]Zr-oxalate, an equal volume of [^89Zr]Zr-oxalate and 0.5 M Thermo Scientific HEPES (concentration 99%) buffer were mixed. The pH of the sample was then adjusted using 5.0 M NaOH. For all radiolabeling experiments, 100 µCi (3.7 MBq) of ^89Zr (pH ~ 7.4) was incubated with varying molar quantities of DFO-TOC and 1.0 M HEPES buffer in a final incubation volume of 200 µL. The reaction was incubated on a thermomixer at 37 °C and 800 rpm for 30 min. The molar activity was determined by radiolabeling 1 nmol of DFO-TOC with varying activities of ^89Zr up to 1500 µCi (55.5 MBq) and 1.0 M HEPES buffer in a final incubation volume of 200 µL. […] Samples were analyzed using an Agilent (Santa Clara, CA) 1260 Infinity II high-performance liquid chromatography (HPLC) instrument with a LabLogic (Chantilly, VA) Flow-RAM radio-HPLC detector. Radiochemical yields were determined via radio-HPLC using a reversed-phase C18 selectivity column (5 μm particle size, 150 mm length, and 4.6 mm diameter).
The samples were assessed for benchtop stability and stability in mouse serum only if a radiochemical yield of 95% or greater was achieved. Benchtop stability was assessed at time points of 30 min, 1 h, 1 day, 2 days, 3 days, 6 days, and 9 days using an Eckert & Ziegler (Valencia, CA) AR-2000 instant Thin Layer Chromatography (iTLC) and radio-HPLC. […]

[7] = tested on: AR42J cells (SSTR2 high expression); assay: Receptor binding and competitive receptor blocking assay, AR42J cells; type: cell-based
Description: as §2, §3, §4

[8] = tested on: PC-3 cells (SSTR2 moderate expression); assay: Receptor binding and competitive receptor blocking assay, PC-3 cells; type: cell-based; details: 2.5 nmol unlabeled DFO-TOC (100x excess) as blocking agent; at 120 h; p = 0.0001; paired nonparametric t-test
Description: as §2, §3, §4

[9] = tested on: SSTR2, AR42J; details: ref Vaidyanathan et al. [2003], Hofland et al. [1999]; cited from earlier work
[10] = tested on: SSTR2; design: method as in Buscail et al. [1994]; details: ref Buscail et al. [1994]; cited from earlier work
Description: (§5) Significant progress has been made in recent years towards understanding the underlying biology and molecular pathways involved with NETs, particularly the role of somatostatin receptors (SSTRs) and their downstream pathways. SSTRs (SSTR1, 2 A/2B, 3, 4, and 5) belong to a family of G protein-coupled receptors with seven transmembrane-spanning proteins that bind the cyclic peptide somatostatin (SST) (Theodoropoulou and Stalla [2013]). SST regulates cell growth and inhibits hormone secretion in the endocrine and exocrine systems (Brereton et al. [2015]; Ampofo et al. [2020]). Prior research has ...

[11] = ref Brereton et al. [2015]; Lamberts et al. [1996]; cited from earlier work
Description: as §5, with “[2020]).” for “[2020]). Prior research has ...”

## CC(=O)N(O)CCCCCNC(=O)CCC(=O)N(O)CCCCCNC(=O)CCC(=O)N(O)CCCCCNC(=S)Nc1ccc(NC(=S)NCCCCCC(=O)N[C@H](Cc2ccccc2)C(=O)N[C@H]2CSSC[C@@H](C(=O)N[C@H](CO)[C@@H](C)O)NC(=O)[C@H]([C@@H](C)O)NC(=O)[C@H](CCCCN)NC(=O)[C@@H](Cc3c[nH]c4ccccc34)NC(=O)[C@H](Cc3ccc(O)cc3)NC2=O)cc1 [[^89Zr]Zr-DFO-TOC, metal not drawn]
[1]; 0.025 nmol DFO-TOC, 1 µCi per well, time points 30 min, 1 h, 3 h, trypsin and sodium citrate pH 2 strip
  time of maximum cell internalization, PC-3: 3 h
[1]; time points up to 3 h
  percentage of tracer internalized in PC-3 compared with AR42J and PANC-1: higher percentage of the tracer was internalized
[2]
  time of maximum cell internalization, AR42J: 3 h
[3]; iTLC, diethylenetriamine pentaacetic acid mobile phase
  radiochemical yield on the benchtop after 9 days, iTLC: 97 ± 4%
[3]; radio-HPLC, C18, 0.1% TFA water/acetonitrile gradient
  radiochemical yield on the benchtop after 9 days, radio-HPLC: 89.6% and 90 ± 4%
[4]
  time of maximum cell internalization, PANC-1: 3 h
[5]; 0.025 nmol DFO-TOC, 1 µCi per well, attributed to low SSTR2 expression
  tracer uptake in PANC-1 cells: Low
[5]; 2.5 nmol unlabeled DFO-TOC (100x excess) as blocking agent, all time points, paired nonparametric t-test
  blocking versus total binding groups, PANC-1: No statistically significant difference
[6]
  radiochemical yield in mouse serum after 9 days, radio-HPLC: 89 ± 2%
[7]; 0.025 nmol DFO-TOC, 1 µCi per well, 1 million cells per well, 1 h to 6 days, gamma counter, P < 0.0001 vs PC-3 and p = 0.0001 vs PANC-1 after 1 h
  tracer uptake (total binding) in AR42J cells compared with the other cell lines: highest uptake; also recorded: higher uptake than PC-3 and PANC-1 cell lines at all time points
[7]; 0.025 nmol DFO-TOC, 1 µCi per well, time points 1 h to 6 days
  time at which AR42J cell binding reached saturation: 5 days
[7]; 2.5 nmol unlabeled DFO-TOC (100x excess) as blocking agent, after 1 h, p < 0.0001, paired nonparametric t-test
  blocking versus total binding groups, AR42J: statistically significant difference
[8]
  blocking versus total binding groups, PC-3: statistically significant difference

## [Tyr3, Thr8]-octreotide
[9]
  earliest time at which SSTR2 internalization was observed: 2.5 min

## octreotide
[10]
  receptor affinity for SSTR2: high receptor affinity

## somatostatin [SST]
[11]
  bioactive half-life: < 1 min
